We go through 46 compounds from patent publication US11111217B2, “2-arylbenzimidazoles as Ppargc1a activators for treating neurodegenerative diseases” (The Board of Trustees of the Leland Stanford Junior …, priority 2018, dated 2021).

In the experiment the test system is TNF-α production by BV2 cells or PBMC. In words: Cellular assay to measure TNF-α inhibition (LPS-stimulated, ELISA). The format is cell-based, murine (BV2) or human (PBMC). The settings on record: BV2 cells or PBMC (not specified), LPS 100 ng/ml over 24 hours, relative to DMSO vehicle; compound concentration not stated. From the text:
Oxidative metabolism exerts an anti-inflammatory effect on myeloid cell phenotype (O'Neill L A, Front Immunol. 2014) and Ppargc1a can promote this energy metabolic pathway (Spiegelman BM, Novartis Found Symp. 2007). Thus, pharmacological activation of Ppargc1a would be expected to inhibit the inflammatory response of myeloid cells. This phenomenon can be measured in cultures by a TNF-α inhibition assay.
Cellular Assay Protocol to Measure TNF-α Inhibition
The murine myeloid cell line BV2 or human peripheral blood mononuclear cells (PBMC) are cultured in RPMI 1640 media (Cat #11875119, Gibco) supplemented with 10% fetal bovine serum and 1% L-glutamine 1% penicillin. These cells are then stimulated with 100 ng/ml of lipopolysaccharide (LPS, O111:B34, Cat # L2630, Sigma) over 24 hours. LPS stimulation results in the secretion of the inflammatory cytokine TNF-α by BV2 cells or PBMC, which can be quantified by ELISA in culture supernatant samples per manufacturer's protocol (Cat #558273 for BV2 and Cat #558299 for PBMC, BD Biosciences). To determine whether exampl compounds 1-78 inhibit TNF-α production by BV2 cells or PBMC, the cells were cultured in the presence of the compounds at different concentrations, and fold reduction in TNF-α production relative to TNF-α production by the same cells cultured in the presence of dimethylsulfoxide (as vehicle control) was determined.
On the technique in general: An ELISA detects its analyte on a solid surface through an enzyme-linked reagent.

As to `c1ccc(COc2ccc(-c3nc4ccccc4[nH]3)cc2)cc1` [Example 73, 2-(4-Benzyloxyphenyl)-1H-benzo[d]imidazole], the “TNF α Inhibition” value was “C (C = <50% inh.)”.

As for `FC(F)(F)c1cccc(-c2nc3ccccc3[nH]2)c1` [Example 39, 2-(3-Trifluoromethylphenyl)-1H-benzo[d]imidazole], the “TNF α Inhibition” value was “B (B = 50-80% inh.)”. Turning to `COc1ccc(-c2nc3c(F)cc(F)cc3[nH]2)cc1` [Example 78, 4,6-Difluoro-2-(4-methoxyphenyl)-1H-benzo[d]imidazole], the “TNF α Inhibition” value is “C (C = <50% inh.)”. For the compound `CC(C)(C)c1ccc(-c2nc3c(Br)cccc3[nH]2)cc1` [Example 54, 2-(4-tert-Butylphenyl)-4-bromo-1H-benzo[d]imidazole], the “TNF α Inhibition” value is on record as “A (A = >80% inh.)”. In the case of `CC(C)c1ccc(-c2nc3ccccc3[nH]2)cc1` [Example 33, 2-(4-Isopropylphenyl)-1H-benzo[d]imidazole] it was “C (C = <50% inh.)”; in that of `c1ccc(-c2ccc(-c3nc4ccccc4[nH]3)cc2)cc1` [Example 65, 2-(4-Biphenyl)-1H-benzo[d]imidazole], “C (C = <50% inh.)”; in that of `Nc1ccccc1-c1nc2ccccc2[nH]1` [Example 48, 2-(2-Aminophenyl)-1H-benzo[d]imidazole], “C (C = <50% inh.)”. As for `FC(F)Oc1ccc(-c2nc3ccccc3[nH]2)cc1` [Example 70, 2-(4-(Difluoromethoxy)phenyl)-1H-benzo[d]imidazole], the entry is “B (B = 50-80% inh.)”; as for `Oc1cccc(-c2nc3ccccc3[nH]2)c1` [Example 40, 2-(3-Hydroxyphenyl)-1H-benzo[d]imidazole], “C (C = <50% inh.)”.

On to `CC(C)(C)Oc1ccc(-c2nc3ccccc3[nH]2)cc1` [Example 71, 2-(4-tert-Butoxyphenyl)-1H-benzo[d]imidazole], for which the “TNF α Inhibition” value is given as “B (B = 50-80% inh.)”.

Turning to `COc1ccccc1-c1nc2ccccc2[nH]1` [Example 25, 2-(2-Methoxy-phenyl)-1H-benzo[d]imidazole], the “TNF α Inhibition” value is given as “C (C = <50% inh.)”. As for `Cc1cccc(-c2nc3ccccc3[nH]2)c1` [Example 9, 2-(3-Methylphenyl)-1H-benzo[d]imidazole], the entry is “C (C = <50% inh.)”. As for `Oc1ccc(-c2nc3ccccc3[nH]2)cc1` [Example 24, 2-(4-Hydroxy-phenyl)-1H-benzo[d]imidazole], the entry is “A (A = >80% inh.)”. In the case of `Clc1ccccc1-c1nc2ccccc2[nH]1` [Example 7, 2-(2-Chlorophenyl)-1H-benzo[d]imidazole] it was “C (C = <50% inh.)”. In the case of `c1ccc(Oc2ccc(-c3nc4ccccc4[nH]3)cc2)cc1` [Example 72, 2-(4-Phenoxyphenyl)-1H-benzo[d]imidazole], the “TNF α Inhibition” value is “C (C = <50% inh.)”. Consider `CCc1ccc(-c2nc3ccccc3[nH]2)cc1` [Example 28, 2-(4-Ethylphenyl)-1H-benzo[d]imidazole], for which the “TNF α Inhibition” value is given as “C (C = <50% inh.)”. In the case of `Cn1c(-c2ccc(C(C)(C)C)cc2)nc2ccccc21` [Example 6, 2-(4-tert-Butylphenyl)-1-methyl-benzo[d]imidazole], the “TNF α Inhibition” value was “B (B = 50-80% inh.)”. `FC(F)(F)c1ccc(-c2nc3ccccc3[nH]2)cc1` [Example 15, 2-(4-Trifluoro-methylphenyl)-1H-benzo[d]imidazole]: the “TNF α Inhibition” value is given as “C (C = <50% inh.)”. In the case of `Cc1ccc(-c2nc3ccccc3[nH]2)cc1` [Example 11, 2-(4-Methylphenyl)-1H-benzo[d]imidazole], the “TNF α Inhibition” value is “A (A = >80% inh.)”. In the case of `CC(C)(C)c1ccc(-c2nc3c(O)cccc3[nH]2)cc1` [Example 50, 2-(4-tert-Butylphenyl)-1H-benzo[d]imidazol-4-ol] it was “A (A = >80% inh.)”.

Take `CC(C)(C)c1ccc(-c2nc3ccccc3s2)cc1` [Example 3, 2-(4-tert-Butylphenyl)-1,3-benzothiazole]: the “TNF α Inhibition” value is on record as “C (C = <50% inh.)”. In the case of `Oc1ccccc1-c1nc2ccccc2[nH]1` [Example 16, 2-(2-Hydroxy-phenyl)-1H-benzo[d]imidazole] it was “C (C = <50% inh.)”; in that of `N#Cc1cccc(-c2nc3ccccc3[nH]2)c1` [Example 30, 2-(3-Cyanophenyl)-1H-benzo[d]imidazole], “C (C = <50% inh.)”.

Consider `CCCOc1ccc(-c2nc3ccccc3[nH]2)cc1` [Example 68, 2-(4-Propoxyphenyl)-1H-benzo[d]imidazole], for which the “TNF α Inhibition” value was “C (C = <50% inh.)”. In the case of `COc1cccc2[nH]c(-c3ccc(C(C)(C)C)cc3)nc12` [Example 51, 2-(4-tert-Butylphenyl)-4-methoxy-1H-benzo[d]imidazole] it was “A (A = >80% inh.)”; in that of `Cc1ccccc1-c1nc2ccccc2[nH]1` [Example 12, 2-(2-Methylphenyl)-1H-benzo[d]imidazole], “C (C = <50% inh.)”; in that of `CC(C)(C)c1ccc(-c2nc3cnccc3[nH]2)cn1` [Example 13, 2-(6-tert-Butyl-3-pyridyl)-1H-imidazo[4,5-c]-pyridine], “B (B = 50-80% inh.)”. As for `N#Cc1ccc(-c2nc3ccccc3[nH]2)cc1` [Example 18, 2-(4-Cyanophenyl)-1H-benzo[d]imidazole], the entry is “C (C = <50% inh.)”.

With `Cc1cccc2[nH]c(-c3ccc(C(C)(C)C)cc3)nc12` [Example 45, 2-(4-tert-Butylphenyl)-4-methyl-1H-benzo[d]imidazole], the “TNF α Inhibition” value was “A (A = >80% inh.)”. Take `CC(C)(C)c1ccc(-c2nc3ncccc3[nH]2)cc1` [Example 35, 2-(4-tert-Butylphenyl)-1H-imidazo[4,5-b]pyridine]: the “TNF α Inhibition” value is “C (C = <50% inh.)”.

Take `COc1cccc(-c2nc3ccccc3[nH]2)c1` [Example 20, 2-(3-Methoxy-phenyl)-1H-benzo[d]imidazole]: the “TNF α Inhibition” value is reported as “C (C = <50% inh.)”. As for `Cc1ccc2[nH]c(-c3ccc(C(C)(C)C)cc3)nc2c1` [Example 38, 2-(4-tert-Butylphenyl)-5-methyl-1H-benzo[d]imidazole], the entry is “A (A = >80% inh.)”; as for `FC(F)(F)Oc1ccc(-c2nc3ccccc3[nH]2)cc1` [Example 66, 2-(4-Trifluoromethoxyphenyl)-1H-benzo[d]imidazole], “C (C = <50% inh.)”; as for `CC(C)(C)c1ccc(-c2nc3cc(F)ccc3[nH]2)cc1` [Example 41, 2-(4-tert-Butylphenyl)-5-fluoro-1H-benzo[d]imidazole], “C (C = <50% inh.)”.

Consider `Brc1cccc(-c2nc3ccccc3[nH]2)c1` [Example 19, 2-(3-Bromophenyl)-1H-benzo[d]imidazole], for which the “TNF α Inhibition” value is reported as “C (C = <50% inh.)”.

As for `CC(C)(C)c1ccc(-c2nc3ccccc3o2)cc1` [Example 4, 2-(4-tert-Butylphenyl)-1,3-benzoxazole], the “TNF α Inhibition” value is “B (B = 50-80% inh.)”. In the case of `CC(C)(C)c1ccc(-c2nc3cc(Br)ccc3[nH]2)cc1` [Example 43, 2-(4-tert-Butylphenyl)-5-bromo-1H-benzo[d]imidazole] it was “A (A = >80% inh.)”; in that of `CC(C)(C)c1ccc(-c2nc3c(Cl)cccc3[nH]2)cc1` [Example 46, 2-(4-tert-Butylphenyl)-4-chloro-1H-benzo[d]imidazole], “A (A = >80% inh.)”. On to `FC(F)(F)C1(c2ccc(-c3nc4ccccc4[nH]3)cc2)CC1` [Example 59, 2-[4-[1-(Trifluoromethyl)-cyclopropyl]phenyl]-1H-benzo[d]imidazole], for which the “TNF α Inhibition” value was “C (C = <50% inh.)”. Take `Brc1ccc(-c2nc3ccccc3[nH]2)cc1` [Example 26, 2-(4-Bromophenyl)-1H-benzo[d]imidazole]: the “TNF α Inhibition” value is “C (C = <50% inh.)”. In the case of `Fc1ccccc1-c1nc2ccccc2[nH]1` [Example 17, 2-(2-Fluorophenyl)-1H-benzo[d]imidazole] it was “C (C = <50% inh.)”.

Regarding `Clc1ccc(-c2nc3ccccc3[nH]2)cc1` [Example 8, 2-(4-Chlorophenyl)-1H-benzo[d]imidazole], the “TNF α Inhibition” value is listed as “C (C = <50% inh.)”.

For `Fc1cccc(-c2nc3ccccc3[nH]2)c1` [Example 36, 2-(3-Fluorophenyl)-1H-benzo[d]imidazole], the “TNF α Inhibition” value is on record as “C (C = <50% inh.)”. Consider `CC(C)(C)c1ccc(-c2nc3c(F)cccc3[nH]2)cc1` [Example 49, 2-(4-tert-Butylphenyl)-4-fluoro-1H-benzo[d]imidazole], for which the “TNF α Inhibition” value is “A (A = >80% inh.)”.

With `CC(C)(C)c1ccc(-c2nc3cc(F)c(F)cc3[nH]2)cc1` [Example 52, 2-(4-tert-Butylphenyl)-5,6-difluoro-1H-benzo[d]imidazole], the “TNF α Inhibition” value is recorded as “C (C = <50% inh.)”.

As to `CC(C)(C)c1ccc(-c2nc3cc(Cl)ccc3[nH]2)cc1` [Example 37, 2-(4-tert-Butylphenyl)-5-chloro-1H-benzo[d]imidazole], the “TNF α Inhibition” value was “A (A = >80% inh.)”.
